The text below walks through data of patent US8729227B2, “Compounds for control of appetite” (University of Cincinnati, priority 2006, dated 2014).

Data set [1] concerns C57BL/6 male mice. Briefly: Feeding pattern of fasted mice after ip injection of hPP or B-74 (Example II, FIG. 1). It is filed as in vivo. As to conditions: 18 h fasted mice, B-74 100 nmol/mice, versus saline control. As to the method:
To study the feeding patterns of animals treated with B-74, seven to eight week old C57BL/6 male mice (Harlan Laboratories, Indianapolis, Ind.) were individually housed in cages in a temperature controlled room (25° C.) under 12-hour light/dark cycles. Mice had free access to water and standard chow and were acclimatized to daily ip saline injections. […] Food was provided ten (10) minutes later, and the 2 and 4 hour food intake was monitored. Statistical significance was determined by ANOVA, with individual means being compared post-hoc by Tukey's corrected t-test.

The conditions of data set [2]: native PP; cited from earlier work.
The subject of data set [3] is C57BL/6 male mice. The data set can be described thus: Preliminary dose study of B-48 on food intake of fasted mice (Example III). The conditions noted are these: ip, overnight (18 h) fasted mice, food intake monitored over 1-24 h; preliminary studies, results not shown. It is filed as in vivo. As for the experimental part:
To further study the feeding patterns of animals treated with B-48, experiments were performed in seven to eight week old C57BL/6 male mice (Harlan Laboratories, Indianapolis, Ind.) after acclimatization of mice for one week. More specifically, in preliminary studies, overnight (18 h) fasted animals were injected (ip) with 0.1 ml of saline or saline (0.1 ml) containing various concentrations of B-48 (0.025, 0.050, 0.100 or 0.150 μmol/mice) (n=8-10 per group). The mice were provided with a known quantity of chow 10 min later. The food intake was monitored over 1-24 h.

Data set [4] relates to C57BL/6 male mice. The data set can be described thus: Food intake of fasted mice after ip B-48 or B-74 alone or together (Example IV, FIGS. 2 and 3). Type of data set: in vivo. The conditions noted are these: for Percentage of Inhibition of Food Intake Compared to Saline: B-48 vs. (B-48 + B-74), fasted mice, 0.050 μmol each compound. As for the experimental part:
To further compare the inhibitory effects of injecting (ip) 0.050 μmol of B-48 or B-74 alone or together (B-48+B-74) on the food intake by fasted mice, additional experiments were conducted.
Accordingly, to study the feeding patterns of animals treated with B-48 or B-74 alone or together (B-48+B-74), seven to eight week old C57BL/6 male mice (Harlan Laboratories, Indianapolis, Ind.) were individually housed in cages in a temperature controlled room (25° C.) under 12-hour light/dark cycles. The mice had free access to water and standard chow. After acclimatizing for one week, mice were fasted 18 hours before the experiment. The fasted animals were injected (ip) with 0.1 ml of saline or saline (0.1 ml) containing B-48 (0.050 μmol/mice) or B-74 (0.050 μmol/mice) alone or together, B-48+B-74 (0.100 μmol/mice, i.e. 0.050 μmol/mice per each compound), (n=8-10 per group). The mice were provided with a blown quantity of chow 10 minutes later. The food intake was monitored over 1-24 h. Statistical significance was determined by AN OVA, with individual means being compared post-hoc by Tukey's corrected t-test.

Turning to “APLEPVYPGDNATPEQMAQYAADLRRYINMLTRPRY [PP]”, in the data set on C57BL/6 male mice [1] (2 h), the “2 h food intake” value was “inhibited”. Besides, the “4 h food intake” value with C57BL/6 male mice [1] (4 h) is on record as “inhibited”. Further, in data set [2], the half-life entry was “about six”.

As for “N-α-Ac[Nle^24,28,Trp^30,Nva^31,ψ^35/36]PYY(22-36)-NH2 (ASXRHYXNWXTRQRY; N-acetyl, C-amide, Nle, Nva, reduced CH2-NH bond; synthesized by man) [B-48, PYY(22-36) analog, Y2 receptor agonist; ψ is —CH2-NH—]”, the “minimum dose required to exhibit significant inhibitory effects on food intake” value in the data set with C57BL/6 male mice [3] is 0.050 μmol/mice. Also, the “Percentage of Inhibition of Food Intake Compared to Saline” value in the data set with C57BL/6 male mice [4] (2 hours after injection) is reported as 39%; with C57BL/6 male mice [4] (4 hours after injection) it was 30%; in the data set on C57BL/6 male mice [4] (8 hours after injection) it was 16%; in the data set with C57BL/6 male mice [4] (24 hours after injection) it was 7%. Further, the “inhibition of food intake over the 24 h time period” value in the data set with C57BL/6 male mice [4] (18 h fasted mice, 0.050 μmol/mice per each compound, alone or together) is “inhibited food intake to a greater extent than the control”.
